Experimental data published in patent US8143419B2, “Trisubstituted 1,2,4-triazoles” (Janssen Pharmaceutica N. V., priority 2006, dated 2012).

Legend:
hα7-wt nAChR [1] = molecular target: T1, hα7-wt nAChR (Homo sapiens, UniProt P36544); experiment: Ca2+ flux imaging (FLIPR) (Protocol A), PAM activity with choline as agonist; type: cell-based; conditions: for EC50: "<5" = no top plateau at maximal concentration; for Emax: read-out: % efficacy
T1 construct: expressed in transfected cells
Source text: Stable expression in mammalian cells in general and rat GH4C1 cells in particular, of cDNA clones encoding the human α7 wild-type sequence (hα7-wt nAChR) and in which the coding region is placed downstream of a promoter results in the appearance of functional α7 nAChRs on the surface of the mammalian cells. This technique has provided a powerful means of assessing the function of α7 wild-type protein. Given the fact that the cation permeability of the α7 nicotinic receptor preferentially favours calcium, fluorescent imaging of Ca^2+ flux through the hα7-wt nAChR stably expressed in the GH4C1 cell line was used as a first means of assaying modulator activity of the compounds of the present invention.
• Hanks buffered saline solution (HBSS, Invitrogen, Belgium), supplemented with 10 mM HEPES (Invitrogen, Belgium), CaCl2 to a final concentration of 5 mM, 0.1% Bovine serum albumin (Sigma-Aldrich NV, Belgium), 2.5 mM probenecid (Sigma-Aldrich NV, Belgium). b) Calcium-Sensitive Dye—Fluo-4AM • Fluo-4AM (Molecular Probes, USA) was dissolved in DMSO containing 10% Pluronic acid (Molecular Probes, USA) to give a stock solution which was aliquoted and stored at −20° C. until later use. On the day of the experiment Fluo-4AM stock was defrosted and diluted in DMEM/F12 (Invitrogen, Belgium) to give a final concentration of 4 μM. c) 96-Well Plates • BD Biocoat poly-D-lysine 96-well black/clear plates (BD Biosciences, Belgium) d) Calcium Flux Measurement • A Fluorimetric Imaging Plate Reader (FLIPR, Molecular Devices Corporation, Sunnyvale, USA) was used to measure intracellular free-calcium flux signals Method
Monolayers of hα7-wt nAChR-expressing cells were grown in multi-well plates, in particular black-sided, transparent bottomed 96 well plates coated with poly-D-lysine for 24 hours prior to loading with a fluorescent calcium indicator, in a particular embodiment loading with fluo-3 or fluo-4AM for up to 90 minutes, in an even more particular embodiment loading with fluo-4AM for up to 90 minutes, and in a preferred embodiment loading with fluo-4AM for up to 60 minutes.
PAM activity was detected in real time by applying the compounds to be tested to the loaded cells along with a α7 nicotinic receptor agonist during constant monitoring of cellular fluorescence in a FLIPR. Compounds giving peak fluorescent responses greater than the response due to agonist alone, were considered to be α7 nAChR PAM's. In a particular embodiment, the α7 nicotinic receptor agonist was choline, a more particular embodiment choline applied at a sub-maximal concentration of 100 μM. In a further setting of the present invention the compounds to be tested were applied prior to the α7 nicotinic receptor agonist, in a particular embodiment up to 20 minutes prior to the agonist, a more particular embodiment up to 10 minutes prior to the agonist, and an even more particular embodiment 10 minutes prior to the agonist.
A control response to choline was calculated on each plate from the difference in peak in fluorescence in wells receiving either choline or assay buffer alone. Compounds of the present invention were tested at a concentration range from 0.1 μM to 50 μM. Compounds were considered to have an interesting activity when their efficacy was at least 500% when tested at the concentration where they have a maximal effect, typically between 0.1 μM and 50 μM (the efficacy of 100 μM choline was defined as 100% in the absence of a PAM). The compounds also have a potentiating effect on the response to choline when measured by whole-cell patch clamp electrophysiology in GH4C1 cells stably over-expressing the human wild-type α7 receptor.

hα7-wt nAChR [2] = molecular target: T1, hα7-wt nAChR; experiment: Ca2+ flux imaging (FDSS) (Protocol B), PAM activity with choline as agonist; type: cell-based; conditions: for EC50: "<5" = no top plateau at maximal concentration; for Emax: read-out: % efficacy
In short: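 Cells stably expressing human wild-type α7 nAChR, loaded with fluo-4AM (2 μM final) up to 120 min in HBSS/10 mM HEPES/5 mM CaCl2/0.1% BSA with 5 mM probenecid. Compounds (0.01–30 μM) added up to 10 min before 100 μM choline; peak fluorescence read on FDSS, potentiation expressed relative to choline-alone response (100%).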

T1 sequence (P36544 23-502): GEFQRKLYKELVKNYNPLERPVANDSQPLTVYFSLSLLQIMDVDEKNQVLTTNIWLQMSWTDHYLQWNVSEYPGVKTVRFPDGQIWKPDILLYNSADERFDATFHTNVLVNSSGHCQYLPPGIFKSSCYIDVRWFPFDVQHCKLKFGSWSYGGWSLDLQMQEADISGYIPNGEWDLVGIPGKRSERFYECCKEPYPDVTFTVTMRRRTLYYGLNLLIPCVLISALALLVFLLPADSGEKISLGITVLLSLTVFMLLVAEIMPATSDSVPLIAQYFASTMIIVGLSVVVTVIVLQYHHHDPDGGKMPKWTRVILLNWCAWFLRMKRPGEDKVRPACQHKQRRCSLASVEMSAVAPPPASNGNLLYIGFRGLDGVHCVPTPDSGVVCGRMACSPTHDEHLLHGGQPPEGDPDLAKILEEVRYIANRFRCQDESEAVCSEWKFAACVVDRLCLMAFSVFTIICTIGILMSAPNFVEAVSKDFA

CN(C)C(=O)CCn1nc(N(C)c2ccc(F)c(C(F)(F)F)c2)nc1-c1ccc2c(c1)OCCO2 [Compound 135]
EC50 (hα7-wt nAChR [1]): 3.16 µM
melting point: 113.1 to 115.1 °C

FCCn1nc(Nc2cccc(OC(F)(F)F)c2)nc1-c1ccnc(C2CC2)c1 [Compound 152]
EC50 (hα7-wt nAChR [1]): 3.98 µM

COCCn1nc(Nc2cccc(C(F)(F)F)c2)nc1-c1ccncc1 [Compound 52]
EC50 (hα7-wt nAChR [1]): 7.94 µM
Emax (hα7-wt nAChR [1]): 641%
melting point: 147.2 °C

OCCn1nc(Nc2cccc(C(F)(F)F)c2)nc1-c1ccnc(N2CCOCC2)c1 [Compound 38]
EC50 (hα7-wt nAChR [1]): 3.98 µM
melting point: 167.4 °C

OCCn1nc(Nc2cccc(C(F)(F)F)c2)nc1-c1cnc2ccoc2c1 [Compound 79]
EC50 (hα7-wt nAChR [1]): > 10 µM
melting point: 158.8 °C

CNC(=O)CCn1nc(Nc2cccc(C(F)(F)F)c2)nc1-c1ccncc1 [Compound 11]
EC50 (hα7-wt nAChR [1]): > 10 µM
Emax (hα7-wt nAChR [1]): 938%

CCOC(=O)Cn1nc(Nc2cccc(C(F)(F)F)c2)nc1-c1ccc2c(c1)OCO2 [Compound 81]
EC50 (hα7-wt nAChR [1]): > 10 µM
melting point: 149.2 °C

OCCn1nc(Nc2cccc(C(F)(F)F)c2)nc1-c1cnc2ccccc2c1 [Compound 80]
EC50 (hα7-wt nAChR [1]): 3.16 µM
melting point: 182 °C

FCCn1nc(Nc2cc(F)cc(F)c2)nc1-c1ccnc(C2CC2)c1 [Compound 177]
EC50 (hα7-wt nAChR [1]): 3.98 µM
melting point: 150.3 °C

OCCn1nc(Nc2cccc(C(F)(F)F)c2)nc1-c1cccnc1 [Compound 16]
EC50 (hα7-wt nAChR [1]): 7.94 µM
Emax (hα7-wt nAChR [1]): 583%
melting point: 158.2 to 159 °C

COc1ccc(Cl)c(Nc2nc(-c3ccc4c(c3)OCCO4)n(CCC(=O)N(C)C)n2)c1 [Compound 196]
EC50 (hα7-wt nAChR [1]): 3.16 µM
melting point: 134.7 to 136.7 °C

CNC(=O)Cn1nc(Nc2cccc(C(F)(F)F)c2)nc1-c1ccc(Cl)cc1Cl [Compound 13]
EC50 (hα7-wt nAChR [1]): 2 µM
melting point: 179.9 to 182.1 °C

CN(C)C(=O)Cn1nc(Nc2cccc(C(F)(F)F)c2)nc1-c1ccc2c(c1)OCCO2 [Compound 23]
EC50 (hα7-wt nAChR [1]): > 10 µM

CC(=O)NCCCn1nc(Nc2ccc(F)c(C(F)(F)F)c2)nc1-c1ccnc(C)c1 [Compound 27]
EC50 (hα7-wt nAChR [1]): > 10 µM
melting point: 171.2 °C

C[C@@H](O)Cn1nc(Nc2ccc(F)c(C(F)(F)F)c2)nc1-c1ccc(C2CC2)nc1 [Compound 100]
EC50 (hα7-wt nAChR [1]): 3.98 µM

CNC(=O)Cn1nc(Nc2cc(F)cc(F)c2)nc1-c1ccnc(NC)c1 [Compound 178]
EC50 (hα7-wt nAChR [1]): > 10 µM
melting point: 247 °C

OCCn1nc(Nc2cccc(C(F)(F)F)c2)nc1-c1ccnc(Cl)c1 [Compound 7]
EC50 (hα7-wt nAChR [1]): 6.31 µM

CC(O)Cn1nc(Nc2cccc(OC(F)(F)F)c2)nc1-c1ccc(C2CC2)nc1 (stereo not shown) [Compound 150]
EC50 (hα7-wt nAChR [1]): 3.98 µM
melting point: 125.5 °C

CC(=O)NCCn1nc(Nc2ccc(F)c(C(F)(F)F)c2)nc1-c1ccncc1 [Compound 138]
EC50 (hα7-wt nAChR [2]): > 10 µM
melting point: 174.3 °C

Cc1ccc(-c2nc(Nc3ccc(F)c(C(F)(F)F)c3)nn2CCC(=O)N(C)C)cn1 [Compound 127]
EC50 (hα7-wt nAChR [2]): 0.2 µM
melting point: 185.4 °C

CC(C)NC(=O)Cn1nc(Nc2cccc(OC(F)(F)F)c2)nc1-c1ccc2c(c1)OCCN2C [Compound 160]
EC50 (hα7-wt nAChR [2]): 0.126 µM
melting point: 153.3 °C

COCCNC(=O)Cn1nc(Nc2cccc(C(F)(F)F)c2)nc1-c1ccc2c(c1)OCCO2 [Compound 82]
EC50 (hα7-wt nAChR [2]): 0.2 µM
melting point: 166.3 to 168.3 °C

COCCNc1ccc(-c2nc(Nc3ccc(F)c(C(F)(F)F)c3)nn2CCC(=O)N(C)C)cn1 [Compound 131]
EC50 (hα7-wt nAChR [2]): 0.398 µM
melting point: 167.7 °C

CCc1ccc(-c2nc(Nc3ccc(F)c(C(F)(F)F)c3)nn2CCC(=O)N(C)C)cn1 [Compound 128]
EC50 (hα7-wt nAChR [2]): 0.0501 µM
melting point: 177.2 °C

CNC(=O)Cn1nc(Nc2cccc(C(F)(F)F)c2)nc1-c1ccncc1 [Compound 9]
EC50 (hα7-wt nAChR [2]): > 10 µM
melting point: 212.9 to 214 °C

NC(=O)Cn1nc(Nc2cccc(C(F)(F)F)c2)nc1-c1ccc(Cl)cc1Cl [Compound 20]
EC50 (hα7-wt nAChR [1]): > 10 µM
melting point: 203.6 to 206.4 °C

Cc1cc(-c2nc(Nc3cc(F)c(F)c(F)c3)nn2C[C@H](C)O)cc(Cl)n1 [Compound 172]
EC50 (hα7-wt nAChR [2]): 0.794 µM
Emax (hα7-wt nAChR [2]): 812%
melting point: 200 °C

CN(C)C(=O)CCn1nc(Nc2cccc(C(F)(F)F)c2)nc1-c1ccc2c(c1)OCCO2 [Compound 6]
EC50 (hα7-wt nAChR [1]): 0.158 µM
melting point: 195.7 to 196.6 °C

Cc1nc(CCn2nc(Nc3ccc(F)c(C(F)(F)F)c3)nc2-c2ccnc(Cl)c2)no1 [Compound 56]
EC50 (hα7-wt nAChR [2]): 1.26 µM
Emax (hα7-wt nAChR [2]): 717%
melting point: 117.4 °C

Cc1cc(-c2nc(Nc3ccc(F)c(C#N)c3)nn2CCC(=O)N(C)C)ccn1 [Compound 186]
EC50 (hα7-wt nAChR [2]): 0.398 µM
melting point: 203.9 °C

CN(C)C(=O)CCn1nc(Nc2ccc(F)c(C(F)(F)F)c2)nc1-c1ccnc(CNC(=O)C(F)(F)F)c1 [Compound 59]
EC50 (hα7-wt nAChR [2]): 0.158 µM
Emax (hα7-wt nAChR [2]): 669%
melting point: 182.4 °C

Cn1nc(Nc2ccccc2)nc1-c1ccc(Cl)cc1Cl [Compound 18]
EC50 (hα7-wt nAChR [1]): > 10 µM
melting point: 193 to 194 °C

OCCn1nc(Nc2cccc(C(F)(F)F)c2)nc1-c1cnc2c(c1)OCC2 [Compound 78]
EC50 (hα7-wt nAChR [1]): > 10 µM
melting point: 173.1 °C

CCOC(=O)NCCn1nc(Nc2ccc(F)c(C(F)(F)F)c2)nc1-c1ccnc(C2CC2)c1 [Compound 140]
EC50 (hα7-wt nAChR [2]): 0.631 µM
melting point: 147.2 °C

CCOc1ccc(-c2nc(Nc3ccc(F)cc3)nn2CCO)cn1 [Compound 170]
EC50 (hα7-wt nAChR [2]): > 10 µM
melting point: 162.2 °C

CNc1cc(-c2nc(Nc3ccc(F)c(C(F)(F)F)c3)nn2C[C@H](C)O)ccn1 [Compound 98]
EC50 (hα7-wt nAChR [2]): > 10 µM
melting point: 164.5 °C

Cc1cc(-c2nc(Nc3ccc4c(c3)OC(F)(F)O4)nn2CC(=O)NC2CCOC2)ccn1 (stereo not shown) [Compound 208]
EC50 (hα7-wt nAChR [2]): 5.01 µM
Emax (hα7-wt nAChR [2]): 909%
melting point: 253.8 °C

CN(C)C(=O)CCn1nc(Nc2ccc3c(c2)OC(F)(F)O3)nc1-c1ccncc1F [Compound 210]
EC50 (hα7-wt nAChR [2]): 0.316 µM
melting point: 201.5 °C

COc1ccc(-c2nc(Nc3cccc(C(F)(F)F)c3)nn2CCO)cn1 [Compound 72]
EC50 (hα7-wt nAChR [2]): 1.26 µM
melting point: 160 °C

CN1CCOc2cc(-c3nc(Nc4cccc(OC(F)(F)F)c4)nn3CC(=O)NC3CC3)ccc21 [Compound 165]
EC50 (hα7-wt nAChR [2]): 0.158 µM
melting point: 168 °C

CNc1ccc(-c2nc(Nc3ccc(F)c(C(F)(F)F)c3)nn2CCO)cn1 [Compound 92]
EC50 (hα7-wt nAChR [2]): 3.16 µM
melting point: 179 °C

OCCn1nc(Nc2cccc(C(F)(F)F)c2)nc1-c1ccc2c(c1)OCCO2 [Compound 3]
EC50 (hα7-wt nAChR [1]): 3.16 µM
melting point: 188.3 to 190.3 °C

Cc1cc(-c2nc(Nc3cccc(OC(F)(F)F)c3)nn2CC(=O)NC2CC2)ccn1 [Compound 164]
EC50 (hα7-wt nAChR [2]): 2 µM
melting point: 190.7 °C

C[C@H](O)Cn1nc(Nc2ccc(F)c(F)c2)nc1-c1ccnc(C2CC2)c1 [Compound 175]
EC50 (hα7-wt nAChR [1]): 2.51 µM
Emax (hα7-wt nAChR [1]): 904%
melting point: 131.4 °C
